Data from patent US8729088B2, “Toll-like receptor modulators and treatment of diseases” (The Regents of the University of California, priority 2009, dated 2014).

What was measured:
TLR7 = experiment: Cytokine induction in BMDM from wild type and TLR7 deficient mice; type: cell-based, mouse; conditions: BMDM from TLR7 deficient mice
Protocol: In vitro measurements of cytokine induction were performed using the mouse leukemic monocyte macrophage cell line, RAW264.7. […] BMDM were prepared from C57BL/6 and TLR7 deficient mice as described in Wu, C. C et al., (2007) “Immunotherapeutic activity of a conjugate of a Toll-like receptor 7 ligand”, Proc Natl Acad Sci USA 104, 3990-5.
In general, RAW264.7 cells or BMDM were incubated with various concentrations of conjugates for 18 hours at 37° C., 5% CO2 and culture supernatants were collected. The levels of cytokines (IL-6, IL-12 or TNF-α in the supernatants were determined by ELISA (BD Biosciences Pharmingen, La Jolla, Calif.) (Cho, H. J et al., “Immunostimulatory DNA-based vaccines induce cytotoxic lymphocyte activity by a T-helper cell-independent mechanism” [see comments], Nat Biotechnol 18, 509-14 (2000)), and the results presented in FIG. 2A-D. Data are mean±SEM of triplicates and are representative of three independent experiments. Minimum detection levels of these cytokines were 15 pg/mL.

[1] = system: pro-inflammatory cytokines (IL-6, TNF-α) in sera; experiment: In vivo kinetics of pro-inflammatory cytokine induction after intravenous injection; design: species or system mouse; conditions: 200 nmol per animal i.v.
Protocol: The pharmacokinetics of pro inflammatory cytokine induction by TLR7 conjugates was examined using 6- to 8-week old C57BL/6 mice. […] Blood samples were collected 2, 4, 6, 24 or 48 hours after injections. Sera were separated and kept at −20° C. until use.

Solubility observations = type: physicochemical
C57BL/6 mice [2] = conditions: mouse, in vivo
Protocol: (§1) Peritoneal cells were collected four hours after TG injection. Total cells were counted by haematocytometer and neutrophils were morphologically identified.
(§2) 4 hours post TG injection total peritoneal cells were harvested and counted. Neutrophils were identified morphologically and counted.
(§3) One day after the last treatment, mice received intraperitoneal injection of 2 ml thioglycollate medium. […] Three hours after the thioglycollate injection, neutrophil infiltration to the peritoneum was evaluated.

mice = conditions: cited from earlier work
C57BL/6 mice [3] = experiment: Thioglycolate induced peritonitis (peritoneal neutrophil infiltration); conditions: 50 nmoles i.v. for three days before thioglycolate
Protocol: as §1, §2, §3

COCCOc1nc(N)c2nc(O)n(Cc3ccccc3)c2n1 [SM, 9-benzyl-8-hydroxy-2-(2-methoxyethoxy) adenine, reference compound]
IL-12 and IL-6 induction (TLR7): little or no IL-12 and IL-6 | course of serum cytokine levels [1]: declined rapidly after 2 hours | solubility in aqueous solution (Solubility observations): insoluble | adverse reaction compared to TG (C57BL/6 mice [2]): no additional adverse reaction | adverse effects in mice (mice; Hayashi et al. 2008): anorexic effects and hypothermia | minimum dose that induced the anorectic reaction (mice; mucosal administration): 50 nmoles per mice | neutrophils recruited to the peritoneum (C57BL/6 mice [3]): reduction | total cells recruited to the peritoneum (C57BL/6 mice [3]): reduction
